Reference: paper PMC6151383 (Molecules : A Journal of Synthetic Chemistry and Natural …, 2017)
In brackets after ≈: the same amount, converted by molar mass. Like-named read-outs stand apart in the source and are kept apart here.

Columns and labels:
[1] = tested on: Staphylococcus aureus CCM 4516/08; assay: Antibacterial microdilution broth MIC, S. aureus; assay type: cell-based; conditions: Staphylococcus aureus, CCM4516; 48 h incubation; read-out: MIC SA 48 h
[2] = tested on: Klebsiella pneumoniae D 11750/08
[3] = tested on: Enterococcus faecalis J 14365/08; assay: Antibacterial microdilution broth MIC, E. faecalis; assay type: cell-based; conditions: Enterococcus faecalis, J14365/08; 48 h incubation; read-out: MIC EF 48 h
[4] = tested on: Escherichia coli CCM 4517; assay: Antibacterial microdilution broth MIC, E. coli; assay type: cell-based; conditions: Escherichia coli, CCM4517; 48 h incubation; read-out: MIC EC 48 h
Candida sp. = assay: Selectivity index for Candida sp. (IC50 HepG2/MIC); assay type: cell-based; conditions: all Candida species
[5] = tested on: Mycobacterium kansasii 235/80; assay: In vitro antimycobacterial MIC, M. kansasii 235/80; assay type: cell-based
[6] = tested on: ESBL-positive Klebsiella pneumoniae J 14368/08
[7] = tested on: Pseudomonas aeruginosa CCM 1961; assay: Antibacterial microdilution broth MIC, P. aeruginosa; assay type: cell-based; conditions: Pseudomonas aeruginosa, CCM1961; 48 h incubation; read-out: MIC PA 48 h
M. kansasii 6509/96 = assay: In vitro antimycobacterial MIC, M. kansasii clinical isolate; assay type: cell-based; conditions: Mycobacterium kansasii
[8] = tested on: Trichophyton interdigitale 445; assay: Antifungal microdilution broth MIC, T. interdigitale; assay type: cell-based
[9] = tested on: Staphylococcus epidermidis H 6966/08; assay: Antibacterial microdilution broth MIC, S. epidermidis; assay type: cell-based; conditions: Staphylococcus epidermidis
[10] = tested on: Mycobacterium tuberculosis 331/88 (H37Rv); assay: In vitro antimycobacterial MIC, M. tuberculosis; assay type: cell-based
[11] = tested on: Mycobacterium avium 330/88; assay: In vitro antimycobacterial MIC, M. avium; assay type: cell-based
[12] = tested on: Lichtheimia corymbifera 272; assay: Antifungal microdilution broth MIC, L. corymbifera; assay type: cell-based; conditions: Lichtheimia corymbifera, 272; 48 h incubation; read-out: MIC LC 48 h
[13] = tested on: Candida albicans ATCC 44859; assay: Antifungal microdilution broth MIC, C. albicans; assay type: cell-based
Trichosporon asahii 1188 = assay: Antifungal microdilution broth MIC, T. asahii; assay type: cell-based
Candida krusei E28 = assay: Antifungal microdilution broth MIC, C. krusei; assay type: cell-based; conditions: Pichia kudriavzevii, E28; 48 h incubation; read-out: MIC CK 48 h
Candida glabrata 20/I = assay: Antifungal microdilution broth MIC, C. glabrata; assay type: cell-based; conditions: Nakaseomyces glabratus
Candida tropicalis 156 = assay: Antifungal microdilution broth MIC, C. tropicalis; assay type: cell-based; conditions: Candida tropicalis, 156; 48 h incubation; read-out: MIC CT 48 h
[14] = tested on: Aspergillus fumigatus 231; assay: Antifungal microdilution broth MIC, A. fumigatus; assay type: cell-based
[15] = 235/80, 168 h, 7 d incubation, read-out: MIC M. kansasii 235/80 7 d
[16] = 235/80, 336 h, 14 d incubation, read-out: MIC M. kansasii 235/80 14 d
[17] = 235/80, 504 h, 21 d incubation, read-out: MIC M. kansasii 235/80 21 d
[18] = 6509/96, 168 h, 7 d incubation, read-out: MIC M. kansasii 6509/96 7 d
[19] = 6509/96, 336 h, 14 d incubation, read-out: MIC M. kansasii 6509/96 14 d
[20] = 6509/96, 504 h, 21 d incubation, read-out: MIC M. kansasii 6509/96 21 d
[21] = H6966/08, 48 h incubation, read-out: MIC SE 48 h
[22] = 336 h, 14 d incubation, read-out: MIC Mtb. 331/88 14 d
[23] = 504 h, 21 d incubation, read-out: MIC Mtb. 331/88 21 d
[24] = 330/88, 336 h, 14 d incubation, read-out: MIC M. avium 330/88 14 d
[25] = 330/88, 504 h, 21 d incubation, read-out: MIC M. avium 330/88 21 d
[26] = ATCC44859, 48 h incubation, read-out: MIC CA 48 h
[27] = Trichosporon asahii, 1188, 48 h incubation, read-out: MIC TA 48 h
[28] = Trichophyton interdigitale, 445, 72 h incubation, read-out: MIC TI 72 h
[29] = Trichophyton interdigitale, 445, 120 h incubation, read-out: MIC TI 120 h
[30] = 48 h incubation, read-out: MIC CG 48 h
[31] = Aspergillus fumigatus, 231, 48 h incubation, read-out: MIC AF 48 h
[32] = Trichophyton interdigitale, 445, 72 h, read-out: MIC TI 72 h
[33] = Trichophyton interdigitale, 445, 120 h, read-out: MIC TI 120 h

Row | Structure (SMILES) | MIC [1] [µM] | MIC KP 24 h [2] [µM] | MIC KP 48 h [2] [µM] | MIC [3] [µM] | MIC [4] [µM] | MIC [5, 15] [µM] | MIC [5, 16] [µM] | MIC [5, 17] [µM] | MIC KP-E 24 h [6] [µM] | MIC KP-E 48 h [6] [µM] | MIC [7] [µM] | MIC (M. kansasii 6509/96; [18]) [µM] | MIC (M. kansasii 6509/96; [19]) [µM] | MIC (M. kansasii 6509/96; [20]) [µM] | MIC [9, 21] [µM] | MIC [10, 22] [µM] | MIC [10, 23] [µM] | MIC [11, 24] [µM] | MIC [11, 25] [µM] | MIC [12] [µM] | also measured
1 | Nc1ccc(S(=O)(=O)Nc2ncccn2)cc1 [SDZ 1, sulfadiazine, reference compound] | > 500 | >500 | >500 | > 500 | > 500 | 16 (≈ 4 µg/mL) | 16 (≈ 4 µg/mL) | 32 (≈ 8.01 µg/mL) | >500 | >500 | > 500 | 8 (≈ 2 µg/mL) | 8 (≈ 2 µg/mL) | 8 (≈ 2 µg/mL) | > 500 | 32 (≈ 8.01 µg/mL) | 62.5 (≈ 15.6 µg/mL) | 62.5 (≈ 15.6 µg/mL) | 62.5 (≈ 15.6 µg/mL) | – | SI for Candida sp. (Candida sp.): inactive; SI for TI ([8]; SI = IC50 (HepG2)/MIC, Trichophyton interdigitale): inactive
2 | O=S(=O)(Nc1ncccn1)c1ccc(N=Cc2cc(Cl)cc(I)c2O)cc1 [Compound 2o, 4-[(5-Chloro-2-hydroxy-3-iodobenzylidene)amino]-N-(pyrimidin-2-yl)benzenesulfonamide] | 15.6 (≈ 8.04 µg/mL) | 500 (≈ 257 µg/mL) | 500 (≈ 257 µg/mL) | 250 (≈ 129 µg/mL) | 250 (≈ 129 µg/mL) | 125 (≈ 64.3 µg/mL) | 250 (≈ 129 µg/mL) | 250 (≈ 129 µg/mL) | 500 (≈ 257 µg/mL) | 500 (≈ 257 µg/mL) | 500 (≈ 257 µg/mL) | 62.5 (≈ 32.2 µg/mL) | 125 (≈ 64.3 µg/mL) | 125 (≈ 64.3 µg/mL) | 31.2 (≈ 16.1 µg/mL) | 125 (≈ 64.3 µg/mL) | 125 (≈ 64.3 µg/mL) | 500 (≈ 257 µg/mL) | 500 (≈ 257 µg/mL) | 250 (≈ 129 µg/mL) | MIC [13, 26]: 7.81 µM (≈ 4.02 µg/mL); MIC (Trichosporon asahii 1188; [27]): 7.81 µM (≈ 4.02 µg/mL); MIC (Candida krusei E28): 7.81 µM (≈ 4.02 µg/mL); MIC [8, 28]: 1.95 µM (≈ 1 µg/mL); MIC [8, 29]: 1.95 µM (≈ 1 µg/mL); MIC (Candida glabrata 20/I; [30]): 7.81 µM (≈ 4.02 µg/mL); MIC (Candida tropicalis 156): 7.81 µM (≈ 4.02 µg/mL); MIC ([14]; Aspergillus fumigatus, 231, 24 h, read-out: MIC AF 24 h): 62.5 µM (≈ 32.2 µg/mL); MIC ([14]; Aspergillus fumigatus, 231, 48 h, read-out: MIC AF 48 h): 62.5 µM (≈ 32.2 µg/mL)
3 | O=[N+]([O-])c1ccc(O)c(C=Nc2ccc(S(=O)(=O)Nc3ncccn3)cc2)c1 [Compound 2f, 4-[(2-Hydroxy-5-nitrobenzylidene)amino]-N-(pyrimidin-2-yl)benzenesulfonamide] | 250 (≈ 99.8 µg/mL) | >500 | >500 | 500 (≈ 200 µg/mL) | 250 (≈ 99.8 µg/mL) | 125 (≈ 49.9 µg/mL) | 250 (≈ 99.8 µg/mL) | 500 (≈ 200 µg/mL) | 500 (≈ 200 µg/mL) | 500 (≈ 200 µg/mL) | 500 (≈ 200 µg/mL) | 125 (≈ 49.9 µg/mL) | 250 (≈ 99.8 µg/mL) | 250 (≈ 99.8 µg/mL) | 500 (≈ 200 µg/mL) | 250 (≈ 99.8 µg/mL) | 250 (≈ 99.8 µg/mL) | 500 (≈ 200 µg/mL) | 1000 (≈ 399 µg/mL) | 500 (≈ 200 µg/mL) | MIC [13, 26]: 500 µM (≈ 200 µg/mL); MIC (Trichosporon asahii 1188; [27]): > 500 µM; MIC (Candida krusei E28): > 500 µM; MIC [8, 28]: 62.5 µM (≈ 25 µg/mL); MIC [8, 29]: 62.5 µM (≈ 25 µg/mL); MIC ([8]; Trichophyton interdigitale, 445, incubation time not given, read-out: MIC for T. interdigitale): 62.5 µM (≈ 25 µg/mL); MIC (Candida glabrata 20/I; [30]): 250 µM (≈ 99.8 µg/mL); MIC (Candida tropicalis 156): > 500 µM; MIC [14, 31]: > 500 µM
4 | COc1ccc(O)c(C=Nc2ccc(S(=O)(=O)Nc3ncccn3)cc2)c1 [Compound 2h, 4-[(2-Hydroxy-5-methoxybenzylidene)amino]-N-(pyrimidin-2-yl)benzenesulfonamide] | 500 (≈ 192 µg/mL) | >500 | >500 | > 500 | > 500 | 16 (≈ 6.15 µg/mL) | 32 (≈ 12.3 µg/mL) | 62.5 (≈ 24 µg/mL) | >500 | >500 | 500 (≈ 192 µg/mL) | 16 (≈ 6.15 µg/mL) | 16 (≈ 6.15 µg/mL) | 32 (≈ 12.3 µg/mL) | – | 32 (≈ 12.3 µg/mL) | 62.5 (≈ 24 µg/mL) | 125 (≈ 48.1 µg/mL) | 125 (≈ 48.1 µg/mL) | > 500 | MIC [13, 26]: 500 µM (≈ 192 µg/mL); MIC (Trichosporon asahii 1188; [27]): 500 µM (≈ 192 µg/mL); MIC (Candida krusei E28): > 500 µM; MIC [8, 32]: 62.5 µM (≈ 24 µg/mL); MIC [8, 33]: 62.5 µM (≈ 24 µg/mL); MIC ([8]; Trichophyton interdigitale, 445, read-out: MIC for T. interdigitale): 62.5 µM (≈ 24 µg/mL); MIC (Candida glabrata 20/I; [30]): 500 µM (≈ 192 µg/mL); MIC (Candida tropicalis 156): 500 µM (≈ 192 µg/mL); MIC ([9]; H6966/08, 24 h, read-out: MIC SE 24 h): 62.5 µM (≈ 24 µg/mL); MIC ([9]; H6966/08, 48 h, read-out: MIC SE 48 h): 62.5 µM (≈ 24 µg/mL); MIC [14, 31]: > 500 µM
5 | O=S(=O)(Nc1ncccn1)c1ccc(N=Cc2cc(Br)ccc2O)cc1 [Compound 2d, 4-[(5-Bromo-2-hydroxybenzylidene)amino]-N-(pyrimidin-2-yl)benzenesulfonamide] | 500 (≈ 217 µg/mL) | 500 (≈ 217 µg/mL) | 500 (≈ 217 µg/mL) | > 500 | 500 (≈ 217 µg/mL) | 32 (≈ 13.9 µg/mL) | 62.5 (≈ 27.1 µg/mL) | 62.5 (≈ 27.1 µg/mL) | 500 (≈ 217 µg/mL) | 500 (≈ 217 µg/mL) | 500 (≈ 217 µg/mL) | 32 (≈ 13.9 µg/mL) | 32 (≈ 13.9 µg/mL) | 62.5 (≈ 27.1 µg/mL) | 250 (≈ 108 µg/mL) | 16 (≈ 6.93 µg/mL) | 32 (≈ 13.9 µg/mL) | 125 (≈ 54.2 µg/mL) | 125 (≈ 54.2 µg/mL) | > 500 | MIC ([13]; ATCC44859, 24 h, read-out: MIC CA 24 h): 125 µM (≈ 54.2 µg/mL); MIC ([13]; ATCC44859, 48 h, read-out: MIC CA 48 h): 125 µM (≈ 54.2 µg/mL); MIC (Trichosporon asahii 1188; Trichosporon asahii, 1188, 24 h, read-out: MIC TA 24 h): 62.5 µM (≈ 27.1 µg/mL); MIC (Trichosporon asahii 1188; Trichosporon asahii, 1188, 48 h, read-out: MIC TA 48 h): 62.5 µM (≈ 27.1 µg/mL); MIC (Candida krusei E28): 250 µM (≈ 108 µg/mL); MIC [8, 32]: 62.5 µM (≈ 27.1 µg/mL); MIC [8, 33]: 62.5 µM (≈ 27.1 µg/mL); MIC (Candida glabrata 20/I; 24 h, read-out: MIC CG 24 h): 62.5 µM (≈ 27.1 µg/mL); MIC (Candida glabrata 20/I; 48 h, read-out: MIC CG 48 h): 62.5 µM (≈ 27.1 µg/mL); MIC (Candida tropicalis 156): 250 µM (≈ 108 µg/mL); MIC [14, 31]: 250 µM (≈ 108 µg/mL)
